≈ marks a conversion by molar mass, not a printed value. Like-named read-outs stand apart in the source and are kept apart here.
Legend:
[1] = test system: Candida albicans ATCC 32354; experiment: MIC, two-fold agar dilution, C. albicans ATCC 32354; assay type: cell-based; conditions: ATCC32354, YMA pH 7.0, 28° C., 40 hours
Protocol: (§1) Minimum inhibitory concentrations (MICs) of nine 4'-N-substituted pradimicin derivatives were determined by two-fold agar dilution method on phosphate-buffered yeast morphology agar (YMA, pH 7.0, Difco Laboratories). A 5-μl of fungal cell suspension containing 2×10^6 cells/ml (2×10^7 cells/ml for Trichophyton mentagrophytes) were spotted on the surface of the agar plates containing test compound. MICs were recorded after 40-hour incubation at 28° C. except for T. mentagrophytes, which required 60-hour incubation to produce visually evaluable growth on the drug-free control plates and were defined as the lowest antibiotic concentrations showing no growth or less than five discrete colonies per spot.
(§2) Medium: yeast morphology agar + 1/15 M phosphate buffer (pH 7.0)
(§3) Incubation conditions: 28° C., 40 hours (C. albicans ATCC 38247 & T.
(§4) Medium: Yeast morphology agar + 1/15 phosphate buffer (pH 7.0).

Candida albicans A9540 [2] = experiment: animal or person; assay type: in vivo, male ICR mice infected with Candida albicans A9540
Protocol: (§5) The in vivo therapeutic efficacies of seven 4'-N-substituted pradimicin derivatives, KHM-1, KHM-2, KHM-3, KHM-4, KHM-5, KHM-6 and KHM-7 were evaluated in the mouse infected with Candida albicans A9540 and Aspergillus fumigatusIAM 2034. Groups of five specific-pathogen-free male ICR mice weighing 20-25 g at each dose level were intravenously infected with approximately 10 times the 50% lethal dose of C. albicans A9540 (1×10^6 cells/mouse) or A. fumigatus IAM 2034 (1×10^7 cells/mouse). Immediately after the fungal infection, test compounds dissolved with 10% DMSO in distilled water were intravenously given to the mouse at the dosed volume of 0.1 ml/10 g of body weight. […] Untreated control animals died 7 to 13 days post-infection.

[3] = test system: Trichophyton mentagrophytes #4329; experiment: MIC, two-fold agar dilution, T. mentagrophytes #4329; assay type: cell-based
Protocol: as §1, §2, §3
(§6) mentagrophytes #4329: 28° C., 60 hours).
as §4

[4] = test system: Cryptococcus neoformans D49; experiment: MIC, two-fold agar dilution, C. neoformans D49; assay type: cell-based; conditions: YMA pH 7.0, 28° C., 40 hours
Protocol: as §1, §2, §3, §4

Candida albicans 83-2-14 = experiment: MIC, two-fold agar dilution, C. albicans 83-2-14; assay type: cell-based; conditions: 83214, YMA pH 7.0, 28° C., 40 hours
Protocol: as §1, §2, §3, §4

[5] = test system: Cryptococcus neoformans IAM 4514; experiment: MIC, two-fold agar dilution, C. neoformans IAM 4514; assay type: cell-based; conditions: IAM4514
Protocol: as §1, §2, §3, §4

[6] = test system: Aspergillus fumigatus IAM 2034; experiment: Therapeutic efficacy in Aspergillus fumigatus systemic infection in mice; assay type: in vivo, male ICR mice infected with Aspergillus fumigatus IAM 2034; conditions: IAM2034, 480 h; for responders at 6.3 mg/kg: 6.3 mg/kg iv; for responders at 6.3 mg/kg / responders at 12.5 mg/kg / responders at 25 mg/kg / responders at 50 mg/kg: 20th day post-infection, read-out: S/T (No. of survivors/tested) (converted); for responders at 12.5 mg/kg: 12.5 mg/kg iv; for responders at 25 mg/kg: 25 mg/kg iv; for responders at 50 mg/kg: 50 mg/kg iv
Protocol: as §5

[7] = Water solubility at neutral pH in PBS containing Ca^2+/Mg^2+; assay type: physicochemical; conditions: pbs with ca2+/mg2+; Table 3; water-solubility at neutral pH in phosphate buffered saline containing Ca^2+/Mg^2+
Protocol: The compounds of the invention have good water solubility. Typically, the water solubility is greater than 10 mg/ml when measured at neutral pH in PBS containing Ca^2+ /Mg^2+, preferably greater than 20 mg/ml.
^2) Water-solubility at neutral pH in phosphate buffered saline
containing Ca^2+ /Mg^2+.

[8] = test system: Candida tropicalis IFO 10241; experiment: MIC, two-fold agar dilution, C. tropicalis IFO 10241; assay type: cell-based; conditions: IFO10241, YMA pH 7.0, 28° C., 40 hours
Protocol: as §1, §2, §3, §4

Candida tropicalis 85-8 = experiment: MIC, two-fold agar dilution, C. tropicalis 85-8; assay type: cell-based; conditions: 858, YMA pH 7.0, 28° C., 40 hours
Protocol: as §1, §2, §3, §4

[9] = test system: Saccharomyces cerevisiae ATCC 9763; experiment: MIC, two-fold agar dilution, S. cerevisiae ATCC 9763; assay type: cell-based; conditions: ATCC9763, YMA pH 7.0, 28° C., 40 hours
Protocol: as §1, §2, §3, §4

[10] = test system: Candida albicans ATCC 38247; experiment: MIC, two-fold agar dilution, C. albicans ATCC 38247; assay type: cell-based; conditions: ATCC38247, YMA pH 7.0, 28° C., 60 hours (table footnote)
Protocol: as §1, §2, §3, §6, §4

[11] = test system: Candida albicans IAM 4888; experiment: MIC, two-fold agar dilution, C. albicans IAM 4888; assay type: cell-based; conditions: IAM4888, YMA pH 7.0, 28° C., 40 hours
Protocol: as §1, §2, §3, §4

Candida albicans A9540 [12] = experiment: MIC, two-fold agar dilution, C. albicans A9540; assay type: cell-based
Protocol: as §1, §2, §3, §4

[13] = test system: Aspergillus fumigatus IAM 2034; experiment: MIC, two-fold agar dilution, A. fumigatus IAM 2034; assay type: cell-based; conditions: IAM2034
Protocol: as §1, §2, §3, §4

[14] = Candida albicans, A9540, 480 h, Table 2, C. albicans, mice, iv, 95% confidence limits in parentheses, read-out: PD50 (50% protection dose)
[15] = Candida albicans, A9540, in Mus musculus, iv, 480 h, read-out: S/T (No. of survivors/tested)
[16] = Table 3, Trichophyton mentagrophytes #4329, YMA, read-out: MIC TM-4
[17] = Trichophyton mentagrophytes #4329, YMA pH 7.0, 28° C., 60 hours, read-out: MIC
[18] = Cryptococcus neoformans IAM 4514, YMA pH 7.0, 28° C., 40 hours, read-out: MIC
[19] = Table 3, Cryptococcus neoformans IAM 4514, YMA, read-out: MIC Cn-2
[20] = Aspergillus fumigatus, A. fumigatus, mice
[21] = Aspergillus fumigatus, Table 2, A. fumigatus, mice, iv, 95% confidence limits in parentheses, read-out: PD50 (50% protection dose)
[22] = Candida albicans A9540, YMA pH 7.0, 28° C., 40 hours, read-out: MIC
[23] = Table 3, Candida albicans A9540, YMA, read-out: MIC Ca-4
[24] = Aspergillus fumigatus IAM 2034, YMA pH 7.0, 28° C., 40 hours, read-out: MIC
[25] = Table 3, Aspergillus fumigatus IAM 2034, YMA, read-out: MIC Af-3
[26] = Candida albicans, A9540, 480 h, C. albicans, mice, 6.3 mg/kg iv, 20th day post-infection, read-out: S/T (No. of survivors/tested) (converted)
[27] = Candida albicans, A9540, 480 h, C. albicans, mice, 12.5 mg/kg iv, 20th day post-infection, read-out: S/T (No. of survivors/tested) (converted)
[28] = Candida albicans, A9540, 480 h, C. albicans, mice, 25 mg/kg iv, 20th day post-infection, read-out: S/T (No. of survivors/tested) (converted)
[29] = Candida albicans, A9540, 480 h, C. albicans, mice, 50 mg/kg iv, 20th day post-infection, read-out: S/T (No. of survivors/tested) (converted)

SMILES	MIC [1]	ED50 (Candida albicans A9540 [2]; [14])	MIC [3, 16]	MIC [3, 17]	MIC [4]	MIC (Candida albicans 83-2-14)	MIC [5, 18]	MIC [5, 19]	responders at 6.3 mg/kg [6, 20]	responders at 12.5 mg/kg [6, 20]	responders at 25 mg/kg [6, 20]	solubility [7]	MIC [8]	MIC (Candida tropicalis 85-8)	MIC [9]	MIC [10]	MIC (Candida albicans A9540 [12]; [22])	MIC (Candida albicans A9540 [12]; [23])	MIC [13, 24]	MIC [13, 25]	further results
COc1cc(O)c2c(c1)C(=O)c1c(cc3c(c1O)-c1c(cc(C)c(C(=O)N[C@H](C)C(=O)O)c1O)[C@H](O[C@@H]1O[C@H](C)[C@H](N(C)N=O)[C@H](O[C@@H]4OC[C@@H](O)[C@H](O)[C@H]4O)[C@H]1O)[C@H]3O)C2=O [KHM-6, 4'-N-Nitrosopradimicin A]	3.1 µg/mL (≈ 3.56 µM)	27 mg/kg	3.1 µg/mL (≈ 3.56 µM)	3.1 µg/mL (≈ 3.56 µM)	1.6 µg/mL (≈ 1.84 µM)	6.3 µg/mL (≈ 7.24 µM)	1.6 µg/mL (≈ 1.84 µM)	1.6 µg/mL (≈ 1.84 µM)	0%	40%	0%	> 20000 µg/mL	12.5 µg/mL (≈ 14.4 µM)	12.5 µg/mL (≈ 14.4 µM)	3.1 µg/mL (≈ 3.56 µM)	1.6 µg/mL (≈ 1.84 µM)	6.3 µg/mL (≈ 7.24 µM)	6.3 µg/mL (≈ 7.24 µM)	3.1 µg/mL (≈ 3.56 µM)	3.1 µg/mL (≈ 3.56 µM)	responders at 6.3 mg/kg (Candida albicans A9540 [2]; [15]): 0%; responders at 12.5 mg/kg (Candida albicans A9540 [2]; [15]): 20%; responders at 25 mg/kg (Candida albicans A9540 [2]; [15]): 20%; responders at 50 mg/kg (Candida albicans A9540 [2]; [15]): 80%; responders at 50 mg/kg [6, 20]: 40%; ED50 [6, 21]: > 50 mg/kg; ED50 ([6]; Table 3, Aspergillus fumigatus IAM 2034, iv, read-out: PD50 (mice) Af-3): > 50 mg/kg; MIC [11]: 6.3 µg/mL (≈ 7.24 µM)
CN[C@@H]1[C@H](O[C@@H]2OC[C@@H](O)[C@H](O)[C@H]2O)[C@@H](O)[C@H](O[C@H]2c3cc(C)c(C(=O)N[C@H](CO)C(=O)O)c(O)c3-c3c(cc4c(c3O)C(=O)c3cc(OC)cc(O)c3C4=O)[C@@H]2O)O[C@@H]1C [Pradimicin FA-1, reference compound]	3.1 µg/mL (≈ 3.62 µM)	18 mg/kg	1.6 µg/mL (≈ 1.87 µM)	1.6 µg/mL (≈ 1.87 µM)	1.6 µg/mL (≈ 1.87 µM)	6.3 µg/mL (≈ 7.35 µM)	0.8 µg/mL (≈ 0.934 µM)	0.8 µg/mL (≈ 0.934 µM)	0%	20%	40%	260 µg/mL (≈ 303 µM)	6.3 µg/mL (≈ 7.35 µM)	6.3 µg/mL (≈ 7.35 µM)	1.6 µg/mL (≈ 1.87 µM)	1.6 µg/mL (≈ 1.87 µM)	6.3 µg/mL (≈ 7.35 µM)	6.3 µg/mL (≈ 7.35 µM)	1.6 µg/mL (≈ 1.87 µM)	1.6 µg/mL (≈ 1.87 µM)	responders at 6.3 mg/kg (Candida albicans A9540 [2]; [26]): 0%; responders at 12.5 mg/kg (Candida albicans A9540 [2]; [27]): 20%; responders at 25 mg/kg (Candida albicans A9540 [2]; [28]): 80%; responders at 50 mg/kg (Candida albicans A9540 [2]; [29]): 100%; responders at 50 mg/kg [6, 20]: 80%; ED50 [6, 21]: 27 mg/kg
COc1cc(O)c2c(c1)C(=O)c1c(cc3c(c1O)-c1c(cc(C)c(C(=O)N[C@H](CO)C(=O)O)c1O)[C@H](O[C@@H]1O[C@H](C)[C@H](N)[C@H](O[C@@H]4OC[C@@H](O)[C@H](O)[C@H]4O)[C@H]1O)[C@H]3O)C2=O [Pradimicin FA-2, reference compound]	3.1 µg/mL (≈ 3.68 µM)	7.7 mg/kg	3.1 µg/mL (≈ 3.68 µM)	3.1 µg/mL (≈ 3.68 µM)	1.6 µg/mL (≈ 1.9 µM)	6.3 µg/mL (≈ 7.48 µM)	1.6 µg/mL (≈ 1.9 µM)	1.6 µg/mL (≈ 1.9 µM)	–	–	–	20 µg/mL (≈ 23.7 µM)	6.3 µg/mL (≈ 7.48 µM)	6.3 µg/mL (≈ 7.48 µM)	1.6 µg/mL (≈ 1.9 µM)	1.6 µg/mL (≈ 1.9 µM)	6.3 µg/mL (≈ 7.48 µM)	6.3 µg/mL (≈ 7.48 µM)	1.6 µg/mL (≈ 1.9 µM)	1.6 µg/mL (≈ 1.9 µM)	ED50 (Candida albicans A9540 [2]; 480 h, Table 3, Candida albicans A9540, iv, read-out: PD50 (mice) Ca-4): 7.4 mg/kg; responders at 6.3 mg/kg (Candida albicans A9540 [2]; [26]): 40%; responders at 12.5 mg/kg (Candida albicans A9540 [2]; [27]): 80%; responders at 25 mg/kg (Candida albicans A9540 [2]; [28]): 100%; responders at 50 mg/kg (Candida albicans A9540 [2]; [29]): 100%

From patent publication US6281342A, “Pradimicin compounds” (Bristol-Myers Squibb Company, priority 1994, dated 2001)
